Experiment: refractive index (other wavelength) (dimensionless); xn = mol fraction of the nth substance listed
Conditions: 101.3 kPa, Liquid, Wavelength=632.8 nm, Method described in references 3 and 4 of the article

N#Cc1ccccc1 [benzonitrile] + CCCCCCCCCCCCCCCC
Conditions | refractive index
294.62 K, x1 = 1 | 1.5246
295.4 K, x1 = 0.0997 | 1.4353
296.2 K, x1 = 0.1982 | 1.4385
296.22 K, x1 = 0.3022 | 1.4432
296.49 K, x1 = 0.8855 | 1.499
296.97 K, x1 = 1 | 1.5235
297.19 K, x1 = 0.0997 | 1.4346
297.59 K, x1 = 0.1982 | 1.438
298.03 K, x1 = 0.3972 | 1.4472
298.19 K, x1 = 0.3022 | 1.4423
298.57 K, x1 = 0.8855 | 1.498
299.03 K, x1 = 0.0997 | 1.4338
299.08 K, x1 = 1 | 1.5224
299.56 K, x1 = 0.3972 | 1.4466
299.75 K, x1 = 0.3022 | 1.4416
299.78 K, x1 = 0.1982 | 1.437
300.77 K, x1 = 0.0997 | 1.433
301.05 K, x1 = 0.3022 | 1.441
301.05 K, x1 = 0.8855 | 1.4969
301.17 K, x1 = 0.1982 | 1.4365
301.26 K, x1 = 0.3972 | 1.4459
301.39 K, x1 = 1 | 1.5213
301.64 K, x1 = 0.1982 | 1.4362
302.7 K, x1 = 0.0997 | 1.4323
302.75 K, x1 = 0.3972 | 1.4452
302.86 K, x1 = 0.3022 | 1.4403
302.96 K, x1 = 0.4976 | 1.4519
303.42 K, x1 = 1 | 1.5203
303.45 K, x1 = 0.7947 | 1.481
303.59 K, x1 = 0.8855 | 1.4957
303.7 K, x1 = 0.4976 | 1.4515
303.82 K, x1 = 0.1982 | 1.4353
304.08 K, x1 = 0.0997 | 1.4317
304.21 K, x1 = 0.3972 | 1.4446
304.25 K, x1 = 0.3022 | 1.4397
304.25 K, x1 = 0.4976 | 1.4512
304.4 K, x1 = 0.7947 | 1.4806
304.69 K, x1 = 0.595 | 1.4585
304.73 K, x1 = 0.4976 | 1.451
305.22 K, x1 = 0.7947 | 1.4802
305.41 K, x1 = 0.3972 | 1.444
305.44 K, x1 = 0.6854 | 1.4668
305.47 K, x1 = 0.595 | 1.4582
305.66 K, x1 = 0.1982 | 1.4346
305.66 K, x1 = 0.4976 | 1.4507
305.86 K, x1 = 0.0997 | 1.4309
305.86 K, x1 = 0.3022 | 1.439
305.89 K, x1 = 0.7947 | 1.4799
305.92 K, x1 = 1 | 1.5191
305.98 K, x1 = 0.8855 | 1.4946
306.25 K, x1 = 0.6854 | 1.4665
306.37 K, x1 = 0.595 | 1.4578
306.66 K, x1 = 0.6854 | 1.4663
306.68 K, x1 = 0.7947 | 1.4795
307.36 K, x1 = 0.595 | 1.4574
307.66 K, x1 = 0.6854 | 1.4658
307.86 K, x1 = 0.8855 | 1.4937
308.18 K, x1 = 0.595 | 1.457
308.42 K, x1 = 0.6854 | 1.4655

From the NIST ThermoML archive (doi:10.1016/j.jct.2005.08.005)
